From PMC8474115 (Journal of Medicinal Chemistry, 2021)
Where a name gives a salt, the structure may show the parent alone. Read-outs that look alike come from different tables or passages of the source.

What was measured:
5-HT3R = biological target: T1, 5-HT3R (Cavia porcellus, UniProt O70212); conditions: for functional classification at 5-HT3R: guinea pig ileum contraction; for antagonist effect: percent inhibition of response to 5-HT 3 μM (contraction of guinea pig ileum)
T1 sequence (O70212 20-490): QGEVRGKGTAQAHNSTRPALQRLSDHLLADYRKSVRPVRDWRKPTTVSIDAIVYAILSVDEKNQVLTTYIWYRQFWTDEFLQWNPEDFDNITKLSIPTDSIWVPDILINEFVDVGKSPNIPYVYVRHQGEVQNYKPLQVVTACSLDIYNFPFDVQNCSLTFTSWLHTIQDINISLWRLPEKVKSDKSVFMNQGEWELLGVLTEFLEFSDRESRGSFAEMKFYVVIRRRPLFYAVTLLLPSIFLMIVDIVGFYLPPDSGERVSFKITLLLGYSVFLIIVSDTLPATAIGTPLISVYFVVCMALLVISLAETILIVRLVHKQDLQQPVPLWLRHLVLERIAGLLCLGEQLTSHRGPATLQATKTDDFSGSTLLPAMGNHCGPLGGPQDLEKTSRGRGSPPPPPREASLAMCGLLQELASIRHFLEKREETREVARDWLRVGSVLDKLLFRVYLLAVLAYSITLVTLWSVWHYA
Protocol: Isolated guinea pig ileum was employed to test the affinity and the intrinsic activity of the investigated compounds for 5-HT3 receptors. […] A 15 cm ileum segment was excised from the small intestine of male guinea pigs and immersed into a Krebs solution (NaCl 120 mM, KCl 5.6 mM, MgCl2 2.2 mM, CaCl2 2.4 mM, NaHCO3 19 mM, glucose 10 mM). After the first 5 cm length closest to the ileocaecal junction had been discarded 2 cm-long fragments were cut. Each segment of the ileum was placed in a 20 mL chamber of tissue organ bath system (Tissue Organ Bath System – 750 TOBS, DMT, Denmark) filled with the Krebs solution at 37° C, pH 7.4, with constant oxygenation (O2/CO2, 19:1), fixed by the lower end to a rod and by the upper end to the force–displacement transducer. The preparation was allowed to stabilize in organ baths for 60 min under a resting tension of 0.5 g, washing every 15 min with fresh Krebs solution. After the equilibration period, a cumulative concentration–response curve was constructed in each tissue for 5-HT (10 nM – 10 μM) by the method of van Rossum.[64] […] Selected compounds were tested using an additional method. After establishment of the first 5-HT concentration–response curve, washing out of the tissue, and stabilization period, the same tissues were subsequently incubated with one of the concentrations of the tested compound for 15 min and the next cumulative concentration curve to 5-HT was obtained. Only one concentration of a studied compound was tested in each piece of tissue.

h5-HT6R [1] = biological target: T2, h5-HT6R (Homo sapiens, UniProt P50406)
Protocol: (§1) For membrane preparation, cells after reaching 90% confluence, were washed with phosphate-buffered saline (PBS), and pelleted by centrifugation (200 × g) in PBS containing 0.1 mM EDTA and 1 mM dithiothreitol.
(§2) The total reaction volume was 200 μL. The incubation process was terminated by filtration through UniFilter-96 (PerkinElmer) plates with the FilterMate Universal Harvester (PerkinElmer, #C961962), and radioactivity retained on the filters was quantified on a MicroBeta counter for radiometric detection (PerkinElmer). […] To evaluate the level of nonspecific signal 10 μM of 5-HT for 5-HT1AR and 5-HT7R, 20 μM of mianserin for 5-HT2AR, 10 μM of methiothepine for 5-HT6R and 10 μM of haloperidol for D2LR were used. […] The acquired results were presented as the mean of at least two independent experiments.

h5-HT6R [2] = biological target: T2, h5-HT6R; assay: Inhibition of 5-CT-induced cAMP production in 1321N1 cells expressing h5-HT6R; assay type: cell-based; parameters: host or cells: 1321N1; conditions: for Kb: cAMP; for antagonist effect: 10^–6 M, percent inhibition of control agonist response
h5-HT7b = h5-HT7b (Homo sapiens, UniProt P34969); conditions: 5-HT7R
Protocol: as §1, §2

hD2L = hD2L (Homo sapiens, UniProt P14416); conditions: D2R
Protocol: as §1, §2

h5-HT2AR = h5-HT2AR (Homo sapiens, UniProt P28223); conditions: 5-HT2AR
Protocol: as §1, §2

h5-HT1A = h5-HT1A (Homo sapiens, UniProt P08908); conditions: 5-HT1AR
Protocol: as §1, §2

male Sprague–Dawley rats [3] = tested on: male Sprague–Dawley rats
Protocol: (§3) Both spontaneous and PCP-induced locomotor activity were measured automatically in Opto-Varimex-4 Auto-Tracks (Columbus Instruments, Ohio) located in sound-attenuated and ventilated boxes. The Auto-Track System sensed the motion with a grid of infrared photocells (16 beams per axis) surrounding the arena.
(§4) Following 30 min of spontaneous activity measurement, the animals were removed from the boxes, injected with phencyclidine hydrochloride (PCP) at a dose of 5 mg/kg (SC), and then PCP-induced locomotor activity was measured for 120 min.
(§5) The measurements (30 min) preceding PCP administration indicate drug-induced effects on spontaneous locomotor activity. The second period (measured in the same animals at 0-120 min following PCP administration) indicates drug-induced alteration of PCP-induced hyperactivity.
(§6) Mixed-design two-way ANOVA with treatment(s) as between-subject factor and time as repeated measures factor on raw distance data, and separate one-way or two-way ANOVAs (on AUC data) followed by Dunnett’s multiple comparison, LSD or Tukey’s post hoc tests as well as analyses of contrast coefficients (Statistica 12 for Windows, IBM SPSS ver 26 for Mac) were used to assess the effects of compounds on activity.

male Sprague–Dawley rats [4] = conditions: AUC −25 to 0 min before PCP
Protocol: as §3, §4, §5, §6

h5-HT3R = h5-HT3R (Homo sapiens, UniProt P46098); conditions: inhibition of inward currents in response to 5-HT (EC80)
Protocol: All recordings were obtained from a holding potential of -60 mV. To establish the baseline response, serotonin was added at the concentration corresponding to its EC80 value. Subsequently, the test compound was characterized in a dose–response protocol at the concentration ranges from 10^–6 to 10^–11 M, with 30 s preincubation, followed by the addition of 5-HT at its EC80 in the presence of the compound for 2 s.
Peak inward currents were measured in response to the serotonin additions in the presence of a single concentration of the compound. Obtained data have been normalized to the baseline peak current induced by the addition of EC80 serotonin for 2 s, according to eq 1 [drawing 4] 1 Received data were analyzed using a four-parameter logistic equation in GraphPad Prism software.

[5] = HEK cells stably expressing h5-HT6R

T2 sequence (P50406 whole entry): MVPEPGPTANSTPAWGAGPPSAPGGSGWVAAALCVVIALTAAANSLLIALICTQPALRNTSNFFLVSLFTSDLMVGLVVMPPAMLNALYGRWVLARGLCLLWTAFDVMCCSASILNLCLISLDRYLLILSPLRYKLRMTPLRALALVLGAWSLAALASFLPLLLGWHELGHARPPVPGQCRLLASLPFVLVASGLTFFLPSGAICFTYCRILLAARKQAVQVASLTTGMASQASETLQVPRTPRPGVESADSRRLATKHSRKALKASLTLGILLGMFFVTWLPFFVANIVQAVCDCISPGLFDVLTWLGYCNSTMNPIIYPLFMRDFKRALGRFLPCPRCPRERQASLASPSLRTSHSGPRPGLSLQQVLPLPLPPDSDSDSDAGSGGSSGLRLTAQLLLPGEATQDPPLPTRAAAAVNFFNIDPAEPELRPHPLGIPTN
Chain of h5-HT7b (P34969 1-432 limits assumed): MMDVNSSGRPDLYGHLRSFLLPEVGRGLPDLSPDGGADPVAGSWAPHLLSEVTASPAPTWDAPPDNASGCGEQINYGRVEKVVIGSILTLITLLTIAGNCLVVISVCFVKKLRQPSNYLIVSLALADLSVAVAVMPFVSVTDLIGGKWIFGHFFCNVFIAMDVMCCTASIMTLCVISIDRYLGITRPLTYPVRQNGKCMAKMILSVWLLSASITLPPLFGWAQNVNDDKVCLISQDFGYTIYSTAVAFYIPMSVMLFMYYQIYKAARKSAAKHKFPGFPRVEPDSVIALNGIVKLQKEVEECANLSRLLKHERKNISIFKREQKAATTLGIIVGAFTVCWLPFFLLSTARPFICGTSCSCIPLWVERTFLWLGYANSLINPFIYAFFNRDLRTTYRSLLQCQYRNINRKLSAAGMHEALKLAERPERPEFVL
Chain of hD2L (P14416 whole entry): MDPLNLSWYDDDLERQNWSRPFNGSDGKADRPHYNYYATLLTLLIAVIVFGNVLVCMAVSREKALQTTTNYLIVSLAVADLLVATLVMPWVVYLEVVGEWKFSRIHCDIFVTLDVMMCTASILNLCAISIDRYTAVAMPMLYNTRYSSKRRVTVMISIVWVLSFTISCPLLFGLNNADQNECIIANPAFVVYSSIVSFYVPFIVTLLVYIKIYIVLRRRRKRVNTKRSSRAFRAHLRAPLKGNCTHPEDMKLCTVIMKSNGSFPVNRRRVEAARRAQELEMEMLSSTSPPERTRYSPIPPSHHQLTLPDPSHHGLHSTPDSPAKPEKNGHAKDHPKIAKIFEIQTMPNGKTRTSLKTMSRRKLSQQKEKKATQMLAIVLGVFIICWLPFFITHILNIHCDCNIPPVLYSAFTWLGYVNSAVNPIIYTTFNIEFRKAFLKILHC
Chain of h5-HT2AR (P28223 whole entry, looked up): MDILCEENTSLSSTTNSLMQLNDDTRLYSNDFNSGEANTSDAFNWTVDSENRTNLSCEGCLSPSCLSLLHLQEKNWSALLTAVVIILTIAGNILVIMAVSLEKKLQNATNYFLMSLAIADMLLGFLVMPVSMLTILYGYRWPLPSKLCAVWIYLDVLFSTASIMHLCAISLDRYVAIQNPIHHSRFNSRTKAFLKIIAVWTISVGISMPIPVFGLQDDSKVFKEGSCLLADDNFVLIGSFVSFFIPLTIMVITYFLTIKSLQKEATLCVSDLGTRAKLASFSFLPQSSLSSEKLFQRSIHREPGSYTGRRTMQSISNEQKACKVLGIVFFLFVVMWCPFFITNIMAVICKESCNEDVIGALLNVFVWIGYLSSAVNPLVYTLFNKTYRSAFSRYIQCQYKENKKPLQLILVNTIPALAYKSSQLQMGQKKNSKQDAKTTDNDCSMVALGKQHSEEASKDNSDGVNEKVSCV
Chain of h5-HT1A (P08908 whole entry): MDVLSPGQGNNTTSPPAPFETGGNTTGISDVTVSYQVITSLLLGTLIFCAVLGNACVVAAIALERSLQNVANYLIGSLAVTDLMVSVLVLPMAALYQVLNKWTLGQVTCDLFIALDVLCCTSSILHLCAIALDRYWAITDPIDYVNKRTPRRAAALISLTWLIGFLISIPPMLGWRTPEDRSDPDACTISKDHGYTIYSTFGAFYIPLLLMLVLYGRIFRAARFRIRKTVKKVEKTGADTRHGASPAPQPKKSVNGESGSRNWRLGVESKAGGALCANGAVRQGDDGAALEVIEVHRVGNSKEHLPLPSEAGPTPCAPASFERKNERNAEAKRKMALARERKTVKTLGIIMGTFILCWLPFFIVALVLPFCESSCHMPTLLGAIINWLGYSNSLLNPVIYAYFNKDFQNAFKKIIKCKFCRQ
Chain of h5-HT3R (P46098 24-478): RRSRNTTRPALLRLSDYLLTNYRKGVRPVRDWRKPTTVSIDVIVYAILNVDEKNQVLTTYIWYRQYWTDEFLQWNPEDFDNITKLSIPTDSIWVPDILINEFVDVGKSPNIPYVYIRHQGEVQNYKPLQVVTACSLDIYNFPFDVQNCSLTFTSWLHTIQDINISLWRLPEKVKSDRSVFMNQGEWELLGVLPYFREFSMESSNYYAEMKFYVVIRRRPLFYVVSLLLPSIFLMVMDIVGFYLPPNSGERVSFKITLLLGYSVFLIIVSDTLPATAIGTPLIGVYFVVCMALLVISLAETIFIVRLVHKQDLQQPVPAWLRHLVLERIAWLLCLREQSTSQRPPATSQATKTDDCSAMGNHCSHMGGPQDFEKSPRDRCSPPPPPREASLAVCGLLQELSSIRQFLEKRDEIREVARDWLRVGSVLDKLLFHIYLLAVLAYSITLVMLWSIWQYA

## CN1CCN(c2nc3ccccc3c3[nH]ccc23)CC1 [Compound 5d, 4-(4-Methylpiperazin-1-yl)-1H-pyrrolo[3,2-c]quinoline]
5-HT3R
  functional classification at 5-HT3R: agonist
h5-HT6R [1]
  Ki: 245 nM
h5-HT6R [2]; Kb
  Kb: > 10000 nM

## c1ccc2c(c1)nc(N1CCNCC1)c1cc[nH]c12 [Compound 5e, 4-(Piperazin-1-yl)-1H-pyrrolo[3,2-c]quinoline]
5-HT3R
  functional classification at 5-HT3R: partial agonist
h5-HT6R [1]
  Ki: 757 nM
h5-HT6R [2]; Kb
  Kb: > 10000 nM

## O=S(=O)(c1cccc(Cl)c1)n1ccc2c(N3CCNCC3)nc3ccccc3c21 [Compound 18, 1-[(3-Chlorophenyl)sulfonyl]-4-(piperazin-1-yl)-1H-pyrrolo[3,2-c]quinoline dihydrochloride]
h5-HT7b
  Ki: 1790 nM
hD2L
  Ki: 1340 nM
5-HT3R; 100 nM
  antagonist effect: 11%
5-HT3R; 300 nM
  antagonist effect: 72%
h5-HT2AR
  Ki: 1670 nM
h5-HT1A
  Ki: 773 nM

## Cc1cccc(S(=O)(=O)n2ccc3c(N4CCNCC4)nc4ccccc4c32)c1 [Compound 20, 1-[(3-Methylphenyl)sulfonyl]-4-(piperazin-1-yl)-1H-pyrrolo[3,2-c]quinoline dihydrochloride]
h5-HT7b
  Ki: 4140 nM
hD2L
  Ki: 2160 nM
5-HT3R; 30 nM
  antagonist effect: 20%
5-HT3R; 100 nM
  antagonist effect: 40%
h5-HT2AR
  Ki: 4630 nM
h5-HT1A
  Ki: 760 nM

## O=S(=O)(c1ccc(F)cc1)n1ccc2c(N3CCNCC3)nc3ccccc3c21 [Compound 22, 1-[(4-Fluorophenyl)sulfonyl]-4-(piperazin-1-yl)-1H-pyrrolo[3,2-c]quinoline dihydrochloride]
5-HT3R; 300 nM
  antagonist effect: 48 (300 nM) %
h5-HT6R [1]; [5]
  Ki: 18 nM
h5-HT6R [2]
  antagonist effect: 72%

## O=S(=O)(c1ccc(C(F)(F)F)cc1)n1ccc2c(N3CCNCC3)nc3ccccc3c21 [Compound 23, 1-{[4-(Trifluoromethyl)phenyl]sulfonyl}-4-(piperazin-1-yl)-1H-pyrrolo[3,2-c]quinoline dihydrochloride]
h5-HT6R [1]; [5]
  Ki: 34 nM
h5-HT6R [2]
  antagonist effect: 63%

## CC(C)c1ccc(S(=O)(=O)n2ccc3c(N4CCNCC4)nc4ccccc4c32)cc1 [Compound 24, 1-[(4-iso-Propylphenyl)sulfonyl]-4-(piperazin-1-yl)-1H-pyrrolo[3,2-c]quinoline dihydrochloride]
5-HT3R; 300 nM
  antagonist effect: 38 (300 nM) %
h5-HT6R [1]; [5]
  Ki: 14 nM
h5-HT6R [2]
  antagonist effect: 65%

## O=S(=O)(c1ccccc1)n1ccc2c(N3CCNCC3)nccc21 [II, reference compound]
h5-HT6R [1]
  Ki: 6 nM
h5-HT6R [2]; Kb
  Kb: 1 nM

## COc1ccc(S(=O)(=O)Nc2cc(Cl)cc(Cl)c2OC)cc1N1CCNCC1 [SB399885]
Male Sprague–Dawley rats [3]; SB399885 1 mg/kg IP, AUC post-PCP vs vehicle
  effect on PCP-induced hyperactivity: enhances PCP-induced hyperactivity compared with vehicle
Male Sprague–Dawley rats [3]; SB399885 alone IP, doses up to 9 mg/kg, AUC 1st and 2nd hour post-PCP
  effect on PCP-induced hyperactivity: did not affect PCP-induced hyperactivity
Male Sprague–Dawley rats [4]; SB399885 1 mg/kg IP
  effect on spontaneous activity: neither compound affected spontaneous activity
Male Sprague–Dawley rats [4]; SB399885 9 mg/kg IP
  effect on spontaneous activity: sedative-like action

## Cc1nccn1CC1CCc2c(c3ccccc3n2C)C1=O (stereo not drawn) [ondansetron, reference compound]
5-HT3R; antagonist potency, Schild analysis, guinea pig ileum
  pA2: pA2 = 7.11 ± 0.12
h5-HT6R [2]; read-out: Kb
  Kb: 58200 nM
Male Sprague–Dawley rats [4]; ondansetron 0.5 mg/kg IP
  effect on spontaneous activity: neither compound affected spontaneous activity

## O=C1c2cccc3c2[C@H](CCC3)CN1[C@@H]1CN2CCC1CC2 [palonosetron]
h5-HT3R
  IC50: 1.7 nM
